According to patent US8951995B2, “Use of 24-nor-UDCA” (Medizinische Universitat Graz, priority 2005, dated 2015):
Like-named read-outs stand apart in the source and are kept apart here.

Key:
Mdr2−/− mice [1] = assay: Routine serum biochemistry in bile acid-fed Mdr2−/− mice; type: in vivo; conditions: Mdr2−/− mice fed 0.5% w/w in diet for 4 weeks, mean ± SD, n = 5
Protocol: (§1) Two months-old Mdr2^−/− (a time point when sclerosing cholangitis is already fully established in these animals (Fickert, Zollner, et al. 2002) were either fed a diet supplemented with norUDCA (0.5%, w/w) or UDCA as a clinical comparator (0.5%, w/w) for 4 weeks and compared to standard-diet-fed Mdr2^−/− and wild type controls.
Serum samples were stored at −70° C. until analysis of alanine transaminase (ALT) and alkaline phosphatase (AP) by routine clinical chemistry performed on a Hitachi 717 analyzer (Boehringer Mannheim, Mannheim, Germany). For determination of total serum bile acid levels, a commercial 3-alpha-hydroxysteroid dehydrogenase assay (Ecoline S+; DiaSys, Holzheim, Germany) was used.

Cyp7a1 = assay: Real-time PCR, relative expression of Cyp7a1; type: in vivo; conditions: liver mRNA, Mdr2−/− mice fed 0.5% w/w for 4 weeks; KO = 100; mean ± SD, n = 5
Protocol: as §1
(§2) RNA isolation, cDNA synthesis and Taqman® real time PCR were performed as described previously (Wagner, Fickert, et al. 2003). The following primers and 5′ FAM, 3′ TAMRA labeled probes were used: Col1a1 fwd: […] (Seq ID No. 35), Col1a1 rev: […] (Seq ID No. 36) and Col1a1 probe: […] (Seq ID No. 37); TIMP-1 fwd: […] (Seq ID No. 38), TIMP-1 rev: […] (Seq ID No. 39) and TIMP-1 probe: […] (Seq ID No. 40); MMP-2 fwd: […] (Seq ID No. 41), MMP-2 rev: […] (Seq ID No. 42) and MMP-2 probe: […] (Seq ID No. 43).

Sult2a1 = assay: Real-time PCR, relative expression of Sult2a1; type: in vivo; conditions: liver mRNA, Mdr2−/− mice fed 0.5% w/w for 4 weeks; KO not detectable, KO + UDCA = 100; mean ± SD, n = 5
Protocol: as §1, §2

Mrp4 = assay: Real-time PCR, relative expression of Mrp4; type: in vivo; conditions: liver mRNA, Mdr2−/− mice fed 0.5% w/w for 4 weeks; KO = 100; mean ± SD, n = 5
Protocol: as §1, §2

Cyp3a11 = assay: Real-time PCR, relative expression of Cyp3a11; type: in vivo; conditions: liver mRNA, Mdr2−/− mice fed 0.5% w/w for 4 weeks; KO = 100; mean ± SD, n = 5
Protocol: as §1, §2

Mdr2−/− mice [2] = assay: Bile flow and biliary excretion measurement; type: in vivo; conditions: Mdr2−/− mice fed 0.5% w/w for 4 weeks, mean ± SD; for Bile flow: normalized to liver weight
Protocol: as §1
Bile flow was determined gravimetrically and normalized to liver weight as described previously (Fickert, Zollner, et al. 2001). Biliary phospholipids concentration was determined using a commercially available kit (Phospholipid B; Wako, Neuss, Germany) according to the manufacture's instructions. Biliary cholesterol concentration was determined using a commercial available kit (Cholesterol liquicolor; Human, Wiesbaden, Germany) according to the manufacture's instructions. Biliary gluthathione (GSH) concentration was determined after protein precipitation in 5% metaphosphoric acid using the Glutathione Assay Kit (Calbiochem, San Diego, US) according to the manufacturer's instructions. Biliary bile acid concentration was analyzed using a 3-alpha-hydroxysteroid dehydrogenase assay (Ecoline St, DiaSys) according to the manufacturer's instructions.

Ugt1a1 = assay: Real-time PCR, relative expression of Ugt1a1; type: in vivo; conditions: liver mRNA, Mdr2−/− mice fed 0.5% w/w for 4 weeks; KO = 100; mean ± SD, n = 5
Protocol: as §1, §2

Mrp3 = assay: Real-time PCR, relative expression of Mrp3; type: in vivo; conditions: liver mRNA, Mdr2−/− mice fed 0.5% w/w for 4 weeks; KO = 100; mean ± SD, n = 5
Protocol: as §1, §2

Cyp2b10 = assay: Real-time PCR, relative expression of Cyp2b10; type: in vivo; conditions: liver mRNA, Mdr2−/− mice fed 0.5% w/w for 4 weeks; KO = 100; mean ± SD, n = 5
Protocol: as §1, §2

Mdr2−/− mice [3] = assay: Liver histology (H&E, Sirius red) in bile acid-fed Mdr2−/− mice; type: in vivo
Excerpt: as §1
For conventional light microscopy, livers were fixed in 4% neutral buffered formaldehyde solution and embedded in paraffin. Sections (4 μm thick) were stained with H&E and Sirius red stain, respectively. The sections were coded and examined by a pathologist (H. D.) unaware of the animals' treatment.

[4] = system: hepatocytes and cholangiocytes; assay: Immunohistochemistry for proliferation marker Ki-67; type: in vivo; conditions: Mdr2−/− mice fed 0.5% w/w for 4 weeks; FIG. 5
Protocol: as §1
Immunohistochemistry for Ki-67 was performed on microwave-treated ([…] citrate buffer pH 6.0) paraffin sections (4 μm thick) using a polyclonal rabbit anti-Ki-67 antibody (dilution 1:750, Novocastra, Newcastle upon Tyne, UK). Binding of the antibody was detected using the ABC system (Dako) using AEC (Dako) as substrate. Number of proliferating hepatocytes was calculated by counting positive nuclei in 30 high power fields in sections of 3 animals in each group. Number of proliferating bile duct epithelial cells was calculated by counting positive nuclei in 20 portal fields in sections of 3 animals in each group.

[5] = system: portal neutrophils (CD11b-positive cells); assay: Immunohistochemistry for neutrophils marker CD-11b; type: in vivo; conditions: Mdr2−/− mice fed 0.5% w/w for 4 weeks, vs standard diet-fed KO; FIG. 3
Excerpt: as §1
To quantify neutrophils CD 11b-positive cells were detected as described previously (Fickert, Fuchsbichler, et al. 2004) with the modification that binding of the antibody was detected using the ABC system (Dako) using AEC (Dako) as substrate. Number of neutrophils was calculated by counting positive cells in 20 portal fields in sections of 3 animals in each group.

[6] = rats; cited from earlier work
Ntcp, Oatp1, Bsep, Mrp2 = assay: mRNA expression of hepatocellular uptake and canalicular efflux systems; type: in vivo; conditions: Mdr2−/− mice fed 0.5% w/w for 4 weeks; data not shown
Protocol: as §1, §2

[7] = norUDCA metabolism and excretion in mice; type: in vivo
collagen 1 and 3 mRNA = assay: Hepatic collagen 1 and 3 mRNA expression; type: in vivo; conditions: Mdr2−/− mice fed 0.5% w/w for 4 weeks
Protocol: as §1, §2

Mdr2−/− mice [8] = assay: Hepatic hydroxyproline content; type: in vivo; conditions: Mdr2−/− mice fed 0.5% w/w for 4 weeks, vs control diet-fed KO; FIG. 2
Protocol: as §1
To quantify liver fibrosis in our model hepatic hydroxyproline content was determined. The right liver lobe was homogenized in 6-normal HCl (200 mg liver tissue/4 ml HCl) and hydrolyzed at 110° C. for 16 h. After filtration 50 μl were added to 450 μl 2.2% NaOH dissolved in citrate-acetate buffer (50 g citric acid×H2O, 12 ml acidic acid, 120 g sodium acetate×3H2O, 34 g NaOH ad 1 liter distilled water; pH 6.0). After adding 250 μl perchloric acid and 12 min incubation at room temperature 250 μl p-dimethylaminobenzaldehyde solution was added and incubated at 60° C. for 20 min. Hydroxyproline content was measured at 565 nm using a hydroxyproline standard curve.

[9] = Estimated choleretic potency in mice; type: in vivo; conditions: relative to normal bile flow
[10] = humans, relative to normal bile flow; cited from earlier work
[11] = cited from earlier work
VCAM = assay: Immunohistochemistry for vascular cell adhesion molecule (VCAM); type: in vivo; conditions: interlobular and lobular bile ducts, Mdr2−/− mice fed 0.5% w/w for 4 weeks; FIG. 4
Protocol: as §1
Immunohistochemistry for VCAM was performed on acetone fixed cryosections using the monoclonal rat anti CD106 (VCAM-1, dilution 1:30, PharMingen, San Diego, Calif., USA) and binding of the antibody was detected using the ABC system (Dako) using AEC (Dako) as substrate.

[12] = Mdr2−/− mice fed 0.5% w/w for 4 weeks

Row | Relative expression level of Cyp7a1 (Cyp7a1) | Relative expression level of Cyp3a11 (Cyp3a11) | Relative expression level of Cyp2b10 (Cyp2b10) | Compound | ALT (Mdr2−/− mice [1]) | AP (Mdr2−/− mice [1]) | Bili (Mdr2−/− mice [1]) | Relative expression level of Sult2a1 (Sult2a1) | Relative expression level of Mrp4 (Mrp4) | Biliary excretion of bicarbonate (Mdr2−/− mice [2]) | Biliary excretion of bile acids (Mdr2−/− mice [2]) | Biliary excretion of cholesterol (Mdr2−/− mice [2]) | Biliary excretion of glutathione (Mdr2−/− mice [2]) | Biliary excretion of phospholipids (Mdr2−/− mice [2]) | Bile flow (Mdr2−/− mice [2]) | Relative expression level of Ugt1a1 (Ugt1a1) | Relative expression level of Mrp3 (Mrp3) | other results
1 | 9 ± 4 | 246 ± 72 | 751 ± 245 | C[C@H](CCC(=O)O)[C@H]1CC[C@H]2[C@@H]3[C@@H](O)C[C@@H]4C[C@H](O)CC[C@]4(C)[C@H]3CC[C@]12C [UDCA, Ursodeoxycholic acid] | 576 ± 175 U/L | 399 ± 73 U/L | 0.55 ± 0.19 | 100 ± 46 | 357 ± 95 | 67.1 ± 10.0 nmol/g/min | 37.2 ± 7.6 nmol/g/min | 0.3 ± 0.1 nmol/g/min | 5.6 ± 1.1 nmol/g/min | 0.3 ± 0.03 nmol/g/min | 2.4 ± 0.3 µL/g/min | 137 ± 55 | 194 ± 55 | Animals showing bile infarcts (Mdr2−/− mice [3]; [12]): 2 out of 5
2 | 60 ± 30 | 241 ± 45 | 1294 ± 418 | C[C@H](CC(=O)O)[C@H]1CC[C@H]2[C@@H]3[C@@H](O)C[C@@H]4C[C@H](O)CC[C@]4(C)[C@H]3CC[C@]12C [norUDCA, 3-alpha,7-alpha-dihydroxy-24-nor-5-beta-cholan-23-oic acid] | 165 ± 23 U/L | 162 ± 25 U/L | 0.23 ± 0.2 | 24157 ± 14948 | 590 ± 193 | 98.8 ± 14.6 nmol/g/min | 29.5 ± 2.3 nmol/g/min | 0.2 ± 0.04 nmol/g/min | 5.8 ± 1.2 nmol/g/min | 0.3 ± 0.1 nmol/g/min | 3.5 ± 0.3 µL/g/min | 304 ± 81 | 207 ± 73 | Proliferation of bile duct epithelial cells / cholangiocytes (Ki-67 positive) [4]: significantly reduced the degree of hepatocyte and bile duct epithelial cell proliferation to nearly wild type control levels; Proliferation of hepatocytes (Ki-67 positive) [4]: significantly reduced the degree of hepatocyte and bile duct epithelial cell proliferation to nearly wild type control levels; Number of portal neutrophils (CD11b-positive cells per 20 portal fields) / portal inflammation [5]: significantly reduced number of portal neutrophils; Induced bile flow [6]: 0.16 mL/min/kg; mRNA expression of hepatocellular uptake (Ntcp, Oatp1) and canalicular efflux (Bsep, Mrp2) systems (Ntcp, Oatp1, Bsep, Mrp2): no significant effects; Major metabolite of norUDCA ([7]; mice): glucuronide; Renal excretion of norUDCA ([7]; mice): considerable renal excretion; Bile acid sulfates and glucuronides in urine ([7]; norUDCA fed Mdr2−/− mice): appearance of bile acid sulfates and glucuronides in urine; Hepatic collagen 1 and 3 mRNA expression (collagen 1 and 3 mRNA): significant reduction; Hepatic hydroxyproline content (Mdr2−/− mice [8]): reduced to baseline levels; Estimated choleretic potency [9]: about three times above that of normal bile flow; Estimated choleretic potency [10]: about three times above that of normal bile flow; Ductular proliferation (Mdr2−/− mice [3]; [12]): virtually absent; Large bile duct disease (H&E staining) (Mdr2−/− mice [3]; Mdr2−/− mice fed 0.5% w/w for 4 weeks, vs control diet-fed KO, FIG. 1A): absent; Fibrosis with periductal collagen fibers (Sirius red staining) (Mdr2−/− mice [3]; Mdr2−/− mice fed 0.5% w/w for 4 weeks, vs control diet-fed KO, FIG. 1C): even more pronounced reduction; Sclerosing cholangitis (Mdr2−/− mice [3]; Mdr2−/− mice, model for PSC, within 4 weeks): cures sclerosing cholangitis; Renal excretion of norUDCA ([11]; humans (men)): considerable renal excretion; Major metabolite of norUDCA ([11]; humans): glucuronide; VCAM expression in bile duct epithelial cells (VCAM): significantly lower VCAM expression
